ChEMBL document CHEMBL1201862, “PubChem BioAssay data set” (2004)
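96-well plates; 48 h exposure; 5 concentrations. Endpoints by linear interpolation between flanking doses. Not reached: highest tested concentration assigned. Abbreviation: GI50, concentration required for 50% inhibition of growth.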 Calls of active or inactive are those of the source. Cut-off read from the data, not from the text of the source: active = GI50 up to about 1.1 µM and inactive = higher.

Experiments:
Experiment in all cases: NCI-60 cell line screen, 48 h
[1] = system: 786-0
[2] = system: A498
[3] = system: A549
[4] = system: ACHN
[5] = system: CAKI-1
[6] = system: CCRF-CEM
[7] = system: COLO 205
[8] = system: DU-145
[9] = system: EKVX
[10] = system: HCC 2998
[11] = system: HCT-116
[12] = system: HCT-15
[13] = system: HL-60
[14] = system: HOP-62
[15] = system: HOP-92
[16] = system: HT-29
[17] = system: Hs-578T
[18] = system: IGROV-1
[19] = system: K562
[20] = system: KM12
[21] = system: LOX IMVI
[22] = system: M14
[23] = system: MCF7
[24] = system: MDA-MB-231
[25] = system: MDA-MB-435
[26] = system: MDA-N
[27] = system: MOLT-4
[28] = system: Malme-3M
[29] = system: NCI-H226
[30] = system: NCI-H23
[31] = system: NCI-H522
[32] = system: NCI/ADR-RES
[33] = system: OVCAR-3
[34] = system: OVCAR-4
[35] = system: OVCAR-5
[36] = system: OVCAR-8
[37] = system: PC-3
[38] = system: RPMI-8226
[39] = system: RXF 393
[40] = system: SF-268
[41] = system: SF-295
[42] = system: SF-539
[43] = system: SK-MEL-28
[44] = system: SK-MEL-2
[45] = system: SK-MEL-5
[46] = system: SK-OV-3
[47] = system: SN12C
[48] = system: SNB-19
[49] = system: SNB-75
[50] = system: SW-620
[51] = system: T47D
[52] = system: TK-10
[53] = system: U-251
[54] = system: UACC-257
[55] = system: UO-31
[56] = system: NCI-H460
[57] = system: SR
[58] = system: UACC-62

For `CCCCCCCCCC(O)CC(=O)c1c(O)cccc1O` (stereo not given), the GI50 [1] was 19.1 µM (inactive), the GI50 [2] was 30.5 µM (inactive) and the GI50 [3] was 23.6 µM (inactive). The GI50 [4] was 24.1 µM (inactive), the GI50 [5] was 21.7 µM (inactive) and the GI50 [6] was 46.3 µM (inactive). The GI50 [7] was 30.1 µM (inactive), the GI50 [8] was 38 µM (inactive) and the GI50 [9] was 21.9 µM (inactive). The GI50 [10] was 12.4 µM (inactive), the GI50 [11] was 20.1 µM (inactive) and the GI50 [12] was 18.2 µM. For the same compound, the GI50 [13] was 22.2 µM (inactive), the GI50 [14] was 16 µM (inactive) and the GI50 [15] was 25.4 µM (inactive). The GI50 [16] was 19.5 µM (inactive), the GI50 [17] was 18.6 µM (inactive) and the GI50 [18] was 18.8 µM (inactive). For the same compound, the GI50 [19] was 22.1 µM (inactive), the GI50 [20] was 19.3 µM (inactive) and the GI50 [21] was 20.4 µM (inactive). For the same compound, the GI50 [22] was 20.1 µM (inactive), the GI50 [23] was 26.8 µM (inactive) and the GI50 [24] was 21.4 µM (inactive). For the same compound, the GI50 [25] was 25.9 µM (inactive), the GI50 [26] was 22 µM (inactive) and the GI50 [27] was 19.5 µM (inactive). The GI50 [28] was 16 µM (inactive), the GI50 [29] was 17.4 µM (inactive) and the GI50 [30] was 22 µM (inactive). The GI50 [31] was 19 µM (inactive), the GI50 [32] was 18.4 µM (inactive) and the GI50 [33] was 21.9 µM (inactive). The GI50 [34] was 16.7 µM (inactive), the GI50 [35] was 18.7 µM (inactive) and the GI50 [36] was 18.8 µM (inactive). For the same compound, the GI50 [37] was 18.7 µM (inactive), the GI50 [38] was 20.6 µM (inactive) and the GI50 [39] was 16.9 µM (inactive). The GI50 [40] was 17.7 µM (inactive), the GI50 [41] was 19.4 µM (inactive) and the GI50 [42] was 20.3 µM (inactive). The GI50 [43] was 41.5 µM (inactive), the GI50 [44] was 18.4 µM (inactive) and the GI50 [45] was 19 µM (inactive). The GI50 [46] was 20 µM (inactive), the GI50 [47] was 31.3 µM (inactive) and the GI50 [48] was 29.9 µM (inactive). The GI50 [49] was 18.7 µM (inactive), the GI50 [50] was 39.5 µM (inactive) and the GI50 [51] was 25.2 µM (inactive). The GI50 [52] was 21.8 µM (inactive), the GI50 [53] was 36.7 µM (inactive) and the GI50 [54] was 19.5 µM (inactive). For the same compound, the GI50 [55] was 19.3 µM (inactive).

With `COC(CC1(/C=C/O[Si](C(C)C)(C(C)C)C(C)C)C(=O)N(C)c2ccccc21)OC` (stereo not given) the GI50 [1] was 18.4 µM (inactive), the GI50 [2] was > 100 µM (inactive) and the GI50 [3] was 45.2 µM (inactive). The GI50 [4] was 62.5 µM (inactive), the GI50 [5] was > 100 µM (inactive) and the GI50 [6] was 64.7 µM (inactive). For the same compound, the GI50 [7] was 58.9 µM (inactive), the GI50 [8] was > 100 µM (inactive) and the GI50 [9] was 46 µM (inactive). The GI50 [10] was 64 µM (inactive), the GI50 [11] was 28.5 µM (inactive) and the GI50 [12] was 40.9 µM. The GI50 [13] was 51.8 µM (inactive), the GI50 [14] was 58.1 µM (inactive) and the GI50 [15] was > 100 µM (inactive). For the same compound, the GI50 [17] was 15.9 µM (inactive), the GI50 [19] was 51.5 µM (inactive) and the GI50 [20] was 39.4 µM (inactive). The GI50 [21] was 33.4 µM (inactive), the GI50 [22] was 94.8 µM (inactive) and the GI50 [23] was 36.8 µM (inactive). For the same compound, the GI50 [24] was > 100 µM (inactive), the GI50 [25] was 76.2 µM (inactive) and the GI50 [26] was > 100 µM (inactive). The GI50 [27] was 55.3 µM (inactive), the GI50 [29] was 24.1 µM (inactive) and the GI50 [30] was 42.1 µM (inactive). For the same compound, the GI50 [56] was 45.9 µM (inactive), the GI50 [32] was 22.9 µM (inactive) and the GI50 [33] was > 100 µM (inactive). The GI50 [34] was 34.5 µM (inactive), the GI50 [35] was > 100 µM (inactive) and the GI50 [36] was 54.3 µM (inactive). The GI50 [37] was 49.3 µM (inactive), the GI50 [38] was 15.3 µM (inactive) and the GI50 [39] was 59.6 µM (inactive). For the same compound, the GI50 [40] was 36.6 µM (inactive), the GI50 [41] was 28.6 µM (inactive) and the GI50 [43] was > 100 µM (inactive). For the same compound, the GI50 [44] was > 100 µM (inactive), the GI50 [45] was 36.8 µM (inactive) and the GI50 [46] was 35.7 µM (inactive). The GI50 [47] was 78.9 µM (inactive), the GI50 [48] was > 100 µM (inactive) and the GI50 [49] was > 100 µM (inactive). The GI50 [57] was 31.6 µM (inactive), the GI50 [50] was > 100 µM (inactive) and the GI50 [51] was 55.3 µM (inactive). For the same compound, the GI50 [53] was 51.9 µM (inactive), the GI50 [54] was 47 µM (inactive) and the GI50 [58] was > 100 µM (inactive). The GI50 [55] was 68.2 µM (inactive).

`Cc1cc2oc3c(ccc(=O)n3C)c(=O)c2c(C)c1Cl` was tested, and the GI50 [2] was 46.8 µM (inactive), the GI50 [3] was 45 µM (inactive) and the GI50 [4] was 57.4 µM (inactive). For the same compound, the GI50 [5] was 67.5 µM (inactive), the GI50 [6] was 38.1 µM (inactive) and the GI50 [7] was 73.5 µM (inactive). For the same compound, the GI50 [8] was 56.6 µM (inactive), the GI50 [9] was 52 µM (inactive) and the GI50 [10] was > 100 µM (inactive). The GI50 [11] was 34.9 µM (inactive), the GI50 [12] was 77.6 µM and the GI50 [13] was 37.6 µM (inactive). The GI50 [14] was 49.7 µM (inactive), the GI50 [15] was 50.1 µM (inactive) and the GI50 [16] was 38.3 µM (inactive). The GI50 [17] was 32 µM (inactive), the GI50 [18] was 32.1 µM (inactive) and the GI50 [19] was 41.9 µM (inactive). For the same compound, the GI50 [20] was 91.4 µM (inactive), the GI50 [21] was 49.9 µM (inactive) and the GI50 [22] was 28.5 µM (inactive). The GI50 [24] was 31.8 µM (inactive), the GI50 [25] was 28.1 µM (inactive) and the GI50 [26] was 52.8 µM (inactive). For the same compound, the GI50 [28] was 57.7 µM (inactive), the GI50 [29] was 35.6 µM (inactive) and the GI50 [30] was 44.6 µM (inactive). For the same compound, the GI50 [56] was 61 µM (inactive), the GI50 [31] was 62.7 µM (inactive) and the GI50 [32] was 72.9 µM (inactive). The GI50 [33] was 42.3 µM (inactive), the GI50 [34] was > 100 µM (inactive) and the GI50 [35] was 72.9 µM (inactive). For the same compound, the GI50 [36] was 76.2 µM (inactive), the GI50 [37] was 37.4 µM (inactive) and the GI50 [39] was 31.2 µM (inactive). The GI50 [40] was 55.5 µM (inactive), the GI50 [41] was 54.8 µM (inactive) and the GI50 [42] was 23.8 µM (inactive). For the same compound, the GI50 [43] was 26.5 µM (inactive), the GI50 [44] was 40.6 µM (inactive) and the GI50 [45] was 29 µM (inactive). For the same compound, the GI50 [46] was 75.5 µM (inactive), the GI50 [47] was 48.6 µM (inactive) and the GI50 [48] was 71.1 µM (inactive). For the same compound, the GI50 [49] was > 100 µM (inactive), the GI50 [57] was 38.1 µM (inactive) and the GI50 [50] was 82.6 µM (inactive). The GI50 [51] was 50.1 µM (inactive), the GI50 [52] was > 100 µM (inactive) and the GI50 [53] was 38.2 µM (inactive). For the same compound, the GI50 [58] was 40.1 µM (inactive) and the GI50 [55] was 73.5 µM (inactive).
